According to patent US20090018175A1, “Pharmaceutical excipient complex” (priority 2007, published 2009):
Read-outs that look alike come from different tables or passages of the source.

Key:
[1] = Stability of the tablet produced according to Example 5 (impurity content on storage); format: physicochemical; details: tablet of Example 5, four days at 70° C., 100 percent relative humidity
Procedure: As used herein, the term “stable” with reference to candesartan cilexetil relates to candesartan cilexetil having about 0.01% to about 0.5% of desethyl-candesartan (“desethyl-CNS”) impurity present in the total weight of the composition, after storage for four days at a temperature of 65° C. and a relative humidity of 100 percent; and/or having about 0.01% to about 0.5% of 2-N-ethyl candesartan (“2-N-ethyl CNS”) impurity present in the total weight of the composition, after storage for four days at a temperature of 65° C. and a relative humidity of 100 percent; and/or having about 0.01% to about 0.2% of impurities other than desethyl-CNS and 2-N-ethyl CNS present in the total weight of the composition, after storage for four days at a temperature of 65° C. and a relative humidity of 100 percent.

[2] = cited from earlier work

## CCOc1nc2cccc(C(=O)OC(C)OC(=O)OC3CCCCC3)c2n1Cc1ccc(-c2ccccc2-c2nnn[nH]2)cc1 (racemic) [candesartan cilexetil, (±)-1-[[(cyclohexyloxy)carbonyl]oxy]ethyl-2-ethoxy-1-[[2′-(1H-tetrazol-5-yl)[1,1′biphenyl]-4-yl]methyl]-1H-benzimidazole-7-carboxylate]
[1]
  degradation of candesartan cilexetil when tabletted with the excipient complex (conclusion): did not degrade significantly
[2]; in methanol
  solubility: sparingly soluble
[2]; in water
  solubility: sparingly soluble
